For 15 molecules, TGI results are on record in PubChem BioAssay (NCI).

The structures appear in SMILES notation.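 A five-concentration, 48-hour dose response in 96-well plates underlies each endpoint, interpolated linearly between surrounding concentrations. TGI is the concentration that stops growth completely.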

As a reminder, the TGI is the concentration at which net growth stops. A higher TGI goes with lower sensitivity of the cells.

Among the test systems are SW-620 colon; SN12C renal; UACC-257 melanoma; MDA-N; TK-10 renal; M14 melanoma; MDA-MB-435; HS 578T breast; SK-MEL-28 melanoma.
Assay in all cases: DTP human tumour cell line panel, 48 h

`c1ccc(C/C(=N\Nc2nc3ccccc3o2)c2ccccn2)cc1`: the TGI is 4.79 µM with SW-620 colon; 3.67 µM with SN12C renal; 3.85 µM in the assay on UACC-257 melanoma; 5.13 µM in the assay with MDA-N; 1.81 µM in the assay with TK-10 renal; 0.992 µM in the assay with M14 melanoma. Moreover, the TGI was 12.7 µM in the assay with MDA-MB-435 and 29 µM in the assay on HS 578T breast.
Regarding `COc1cccc(N2N=C3c4ccccc4-n4c(nc5ccccc54)C3C2N)c1` (stereo not given), the concentration for total growth inhibition (TGI) with SW-620 colon, in the assay on SK-MEL-28 melanoma, in the assay with SN12C renal, in the assay with UACC-257 melanoma, in the assay on MDA-N and in the assay with TK-10 renal was over 100 µM each time. In addition, the total growth inhibition concentration (TGI) in the assay on M14 melanoma, with MDA-MB-435 and in the assay on HS 578T breast was over 100 µM in each case.
In the case of `OCc1ccccc1OC1OC(CO)C(O)C(O)C1O` (stereo not given), the TGI with SW-620 colon, in the assay with SK-MEL-28 melanoma, in the assay on SN12C renal, in the assay on UACC-257 melanoma, in the assay on MDA-N and in the assay with TK-10 renal was over 100 µM each time. Further, the total growth inhibition concentration (TGI) with M14 melanoma, in the assay with MDA-MB-435 and with HS 578T breast was over 100 µM in each case.
On to `CC(=O)OCC1OC(n2c3c(c(-c4ccco4)c(C#N)c2=S)CCCC3)C(OC(C)=O)C(OC(C)=O)C1OC(C)=O` (stereo not given), for which the total growth inhibition concentration (TGI) in the assay with SW-620 colon is over 100 µM; with SK-MEL-28 melanoma it was over 31.6 µM; in the assay on SN12C renal it was over 31.6 µM; in the assay on UACC-257 melanoma, over 31.6 µM; in the assay with MDA-N, over 31.6 µM; in the assay with TK-10 renal, 24.8 µM. In addition, the figures for the total growth inhibition concentration (TGI) in the assay on M14 melanoma, in the assay on MDA-MB-435 and with HS 578T breast were over 100 µM, over 100 µM and 85.6 µM, respectively.
As for `COc1cc2c(cc1OC)C1Cc3ccccc3CN1CCC2` (stereo not given), the TGI in the assay on SW-620 colon, in the assay on SK-MEL-28 melanoma, in the assay on SN12C renal, in the assay on UACC-257 melanoma, in the assay with MDA-N and in the assay with TK-10 renal was over 100 µM throughout. Besides, the TGI in the assay on M14 melanoma, in the assay with MDA-MB-435 and in the assay with HS 578T breast was over 100 µM throughout.
As for `Cc1nn(C(=O)c2ccccc2O)c2c1C(c1ccc(O)cc1)SC(N)=N2` (stereo not given), the total growth inhibition concentration (TGI) in the assay on SW-620 colon, in the assay with SK-MEL-28 melanoma, in the assay with SN12C renal, with UACC-257 melanoma, with MDA-N and with TK-10 renal was over 10 µM each time. The concentration for total growth inhibition (TGI) with M14 melanoma, with MDA-MB-435 and with HS 578T breast was over 10 µM throughout.
In the case of `CNC(=O)OCC1=C(COC(=O)NC)CN(c2ccccc2)C1`, the TGI in the assay with SW-620 colon, with SK-MEL-28 melanoma, in the assay with SN12C renal, with UACC-257 melanoma, in the assay with MDA-N and in the assay on TK-10 renal was over 100 µM each time. The concentration for total growth inhibition (TGI) in the assay on M14 melanoma, in the assay on MDA-MB-435 and with HS 578T breast was over 100 µM each time.
For the molecule `O=C(O)c1ccccc1-c1ccccc1C(=O)c1ccccc1`, the TGI in the assay on SW-620 colon, with SK-MEL-28 melanoma, with SN12C renal, with UACC-257 melanoma, in the assay with MDA-N and in the assay with TK-10 renal was over 100 µM in each case. Besides, the TGI in the assay on M14 melanoma, in the assay with MDA-MB-435 and in the assay on HS 578T breast was over 100 µM in each case.
For `CSc1nc(Br)nc2c1ncn2C1CC(Oc2ccc(C)cc2)C(COc2ccc(C)cc2)O1` (stereo not given), the TGI in the assay with SW-620 colon, in the assay on SK-MEL-28 melanoma, in the assay on SN12C renal, in the assay on UACC-257 melanoma, in the assay with MDA-N and with TK-10 renal was over 100 µM throughout. Also, the TGI was over 100 µM in the assay with M14 melanoma, over 100 µM with MDA-MB-435 and 65.5 µM in the assay on HS 578T breast.
`C=C(CCC(C(=O)O)C1CCC2(C)C3=C(CCC12C)C1(C)CCC(O)C(C)(C)C1CC3)C(C)C` (stereo not given): the concentration for total growth inhibition (TGI) with SW-620 colon, with SK-MEL-28 melanoma, with SN12C renal, with UACC-257 melanoma, in the assay with MDA-N and in the assay on TK-10 renal was over 100 µM in each case. The TGI with M14 melanoma, in the assay with MDA-MB-435 and in the assay on HS 578T breast was over 100 µM each time.
On to `COC(=O)c1ccc(OCc2ccc3nc(-c4ccccc4)c(Cl)nc3c2)cc1`, for which the TGI with SW-620 colon, with SK-MEL-28 melanoma, in the assay with SN12C renal, with UACC-257 melanoma, with MDA-N and with TK-10 renal was over 100 µM each time. Moreover, the TGI in the assay with M14 melanoma is over 100 µM; with MDA-MB-435, over 100 µM; in the assay with HS 578T breast, 99.4 µM.
Regarding `COC(=O)C(Cc1ccccc1)NC(=O)CCCNC(=O)OCc1ccccc1` (stereo not given), the TGI was over 100 µM in the assay with SW-620 colon; over 100 µM with SK-MEL-28 melanoma; over 100 µM with SN12C renal; over 100 µM in the assay on MDA-N; over 100 µM in the assay on TK-10 renal; 32.5 µM in the assay with M14 melanoma. The TGI in the assay on MDA-MB-435 and with HS 578T breast was over 100 µM each time.
As to `Cc1ccc(Nc2nnc3n2S(=O)(=O)c2cc(C)c(Cl)cc2S3)cc1`, the TGI with SW-620 colon is over 100 µM; in the assay with SK-MEL-28 melanoma it was over 100 µM; in the assay with UACC-257 melanoma it was over 100 µM; in the assay with MDA-N, 4.33 µM; with TK-10 renal it was over 100 µM; in the assay with M14 melanoma, 47.4 µM. The results for the TGI in the assay with MDA-MB-435 and with HS 578T breast were 70.4 µM and 8.67 µM, respectively.
For the molecule `CC1=CC(c2ccccc2)n2c(nc3cc4ccccc4cc32)N1` (stereo not given), the TGI in the assay with SW-620 colon, in the assay with SK-MEL-28 melanoma, in the assay on UACC-257 melanoma, in the assay on MDA-N, in the assay with TK-10 renal and with M14 melanoma was over 100 µM in each case. In addition, the total growth inhibition concentration (TGI) in the assay on MDA-MB-435 and in the assay on HS 578T breast was over 100 µM in each case.
In the case of `C=C1C(=O)O[C@H]2C(=O)[C@H](C)CCC[C@@](C)(O)/C=C\C[C@@]3(C)O[C@@H]3C[C@@H]12`, the concentration for total growth inhibition (TGI) in the assay with SW-620 colon worked out at 22.1 µM; with SN12C renal it was 31.3 µM; with UACC-257 melanoma, 31 µM; in the assay on MDA-N, 34.8 µM; in the assay on TK-10 renal, 15.1 µM; with M14 melanoma it was 24 µM. Moreover, the results for the TGI with MDA-MB-435 and in the assay with HS 578T breast were 36.1 µM and 90.2 µM, respectively.
